Consider five substances from publication PMC2752989 (PLoS ONE, 2009).

Series [1] concerns Candida parapsilosis ATCC 90018. The series is classed as cell-based. The following applies: pH 7.4.
The test system of series [2] is C. parapsilosis ATCC 90018. The series is classed as cell-based, Candida parapsilosis. As to conditions: n = 3.
Series [3] relates to bacteria. The following applies: cited from earlier work.
In series [4] the test system is HaCaT keratinocytes.

Turning to “GHHPHGHHPHGHHPHGHHPH [GHH20, H-rich control peptide derived from histidine-rich glycoprotein]”, in series [1], the “antimicrobial activity (viable count) with Zn2+” value is “dose-dependent killing” and the “antimicrobial activity (viable count) without Zn2+” value is given as “showed no antimicrobial activity”. In addition, in series [2], the “antimicrobial activity in RDA at low pH versus normal pH” value is “showed enhanced activity at low pH” and the “antimicrobial activity in RDA with versus without Zn2+” value is “significantly enhanced”.

In the case of “HKHGHGHGKHKNKGKKNGKH [HKH20, kininogen-derived antimicrobial peptide]”, the “antibacterial activity in physiological buffers and plasma” value in series [3] is “retain antibacterial activity in physiological buffers as well as in plasma”.

On to GKRKKKGKGLGKKRDPCLRKYK [GKR22], for which the “antibacterial activity in physiological buffers and plasma” value in series [3] is “retain antibacterial activity in physiological buffers as well as in plasma”.

On to “AHHAHAAHHAHAAHHAHAAHHAHA [AHH24, previously described H-rich control peptide]”, for which, in series [1], the “antimicrobial activity (viable count) with Zn2+” value is recorded as “dose-dependent killing” and the “antimicrobial activity (viable count) without Zn2+” value was “showed no antimicrobial activity”. Moreover, in series [2], the “antimicrobial activity in RDA at low pH versus normal pH” value is listed as “showed enhanced activity at low pH” and the “antimicrobial activity in RDA with versus without Zn2+” value was “significantly enhanced”.

Take “LL-37: classical human antimicrobial cathelicidin peptide, benchmark”: the “cell permeabilization (LDH release)” value in series [4] is on record as “less active”.
